In ChEMBL document CHEMBL1123562, “N-substituted oxopyrimidines and nucleosides: structure-activity relationship for hypnotic activity as central nervous system depressant” (J Med Chem, 1987):
Values joined by “and” are separate entries in the source; they are usually repeats but may differ in a detail not shown here. Identical values can stand only once.

Tests used:
[1] = system: Mus musculus; assay: Hypnotic activity expressed as sleeping time was determined in ddN strain mice by the iv administration of 0.5 umol/kg of the compound; None indicates that the mouse could not fall into sleep; assay type: functional, organism-based
[2] = system: Mus musculus; assay: Hypnotic activity expressed as sleeping time was determined in ddN strain mice by the icv administration of 2.0 uMol/mouse of the compound; assay type: functional
[3] = system: Mus musculus; assay: Tested for PB (pentobarbital)-induced sleep effect expressed as percent control of sleeping time at a dosage (icv) of 2.0 uM concentration; assay type: functional
[4] = system: Mus musculus; assay: Tested for PB (pentobarbital)-induced sleep effect expressed as percent control of sleeping time at a dosage (icv) of 3.8 uM concentration; assay type: functional
[5] = system: Mus musculus; assay: Hypnotic activity expressed as sleeping time was determined in ddN strain mice by the icv administration of 3.8 uMol/mouse of the compound; None indicates that the mouse could not fall into sleep; assay type: functional, organism-based
[6] = system: Mus musculus; assay: Hypnotic activity in ddN strain mice by the iv administration of 0.5 mmol/kg; No activity.; assay type: functional, organism-based
[7] = system: Mus musculus; assay: Hypnotic activity expressed as sleeping time was determined in ddN strain mice by the iv administration of 0.3 mmol/kg of the compound; None indicates that the mouse could not fall into sleep; assay type: functional, organism-based
[8] = system: Mus musculus; assay: Hypnotic activity expressed as sleeping time was determined in ddN strain mice by the icv administration of 2.0 uMol/mouse of the compound; None indicates that the mouse could not fall into sleep; assay type: functional, organism-based
[9] = system: Mus musculus; assay: Hypnotic activity expressed as sleeping time was determined in ddN strain mice by the iv administration of 0.1 mmol/kg of the compound; None indicates that the mouse could not fall into sleep; assay type: functional, organism-based
[10] = Partition coefficient is determined for the compound from its equilibrium concentrations in organic phase to that in aqueous buffer of pH 7.4; assay type: ADME; settings: octanol/water
[11] = system: Mus musculus; assay: Hypnotic activity expressed as ratio of number of animals slept and total number of animals tested was determined in ddN strain mice by the icv administration of 0.3 mmol/mouse of the compound; 7/8; assay type: functional
[12] = system: Mus musculus; assay: Hypnotic activity expressed as sleeping time was determined in ddN strain mice by the icv administration of 0.1 mmol/mouse of the compound; None indicates that the mouse could not fall into sleep; assay type: functional, organism-based
[13] = system: Mus musculus; assay: Tested for PB (pentobarbital)-induced sleep effect expressed as percent control of sleeping time at a dosage (icv) of 1.0 uM concentration; assay type: functional
[14] = system: Mus musculus; assay: Hypnotic activity expressed as ratio of number of animals slept and total number of animals tested was determined in ddN strain mice by the icv administration of 0.3 mmol/mouse of the compound; 8/8; assay type: functional
[15] = system: Mus musculus; assay: Hypnotic activity expressed as sleeping time was determined in ddN strain mice by the icv administration of 3.8 uMol/mouse of the compound; assay type: functional
[16] = system: Mus musculus; assay: Hypnotic activity expressed as ratio of number of animals slept and total number of animals tested was determined in ddN strain mice by the icv administration of 0.1 mmol/mouse of the compound; 0/8; assay type: functional
[17] = system: Mus musculus; assay: Hypnotic activity expressed as sleeping time was determined in ddN strain mice by the icv administration of 3.0 uMol/mouse of the compound; assay type: functional
[18] = system: Mus musculus; assay: Hypnotic activity expressed as sleeping time was determined in ddN strain mice by the iv administration of 0.3 mmol/kg of the compound; assay type: functional
[19] = system: Mus musculus; assay: Hypnotic activity expressed as sleeping time was determined in ddN strain mice by the iv administration of 0.5 mmol/kg of the compound; assay type: functional
[20] = system: Mus musculus; assay: Hypnotic activity expressed as ratio of number of animals slept and total number of animals tested was determined in ddN strain mice by the icv administration of 0.1 mmol/kg of the compound; 8/8; assay type: functional
[21] = system: Mus musculus; assay: Hypnotic activity expressed as ratio of number of animals slept and total number of animals tested was determined in ddN strain mice by the icv administration of 0.5 mmol/kg of the compound; 4/4; assay type: functional
[22] = system: Mus musculus; assay: Hypnotic activity expressed as ratio of number of animals slept and total number of animals tested was determined in ddN strain mice by the icv administration of 0.3 mmol/kg of the compound; 6/6; assay type: functional
[23] = system: Mus musculus; assay: Hypnotic activity expressed as sleeping time was determined in ddN strain mice by the icv administration of 1.0 uMol/mouse of the compound; assay type: functional
[24] = system: Mus musculus; assay: Tested for PB (pentobarbital)-induced sleep effect expressed as percent control of sleeping time at a dosage (icv) of 2.4 uM concentration; assay type: functional
[25] = system: Mus musculus; assay: Hypnotic activity expressed as ratio of number of animals slept and total number of animals tested was determined in ddN strain mice by the icv administration of 0.3 mmol/kg of the compound; 2/8; assay type: functional
[26] = system: Mus musculus; assay: Hypnotic activity expressed as ratio of number of animals slept and total number of animals tested was determined in ddN strain mice by the icv administration of 0.5 mmol/kg of the compound; 5/8; assay type: functional
[27] = system: Mus musculus; assay: Hypnotic activity expressed as sleeping time was determined in ddN strain mice by the icv administration of 1.0 uMol/mouse of the compound; None indicates that the mouse could not fall into sleep; assay type: functional, organism-based
[28] = system: Mus musculus; assay: Hypnotic activity expressed as ratio of number of animals slept and total number of animals tested was determined in ddN strain mice by the icv administration of 0.1 mmol/kg of the compound; 0/8; assay type: functional
[29] = system: Mus musculus; assay: Hypnotic activity expressed as sleeping time was determined in ddN strain mice by the icv administration of 12.0 uMol/mouse of the compound; assay type: functional

## Cc1ccc(Cn2c(=O)ccn(C3O[C@H](CO)[C@@H](O)[C@H]3O)c2=O)cc1 (stereo partly drawn)
[1]
  Sleeping time: None
[2]
  Sleeping time: 36 min
[3]
  Sleeping time (% of control): 308%

## C=CCn1c(=O)ccn(C2O[C@H](CO)[C@@H](O)[C@H]2O)c1=O (stereo partly drawn)
[4]
  Control: 173%
[5]
  Sleeping time: None
[6]
  Sleeping time: None

## O=c1[nH]c(=O)n(C2CCCO2)cc1F (stereo not drawn) [TEGAFUR]
[7]
  Sleeping time: None
[6]
  Sleeping time: None
[8]
  Sleeping time: None
[3]
  Sleeping time (% of control): 139%
[9]
  Sleeping time: None
[10]
  Partition coefficient: 0.35

## CC(=O)OC[C@H]1O[C@@H](n2ccc(=O)[nH]c2=O)[C@H](OC(C)=O)[C@@H]1OC(C)=O [URIDINE TRIACETATE]
[6]
  Sleeping time: None
[2]
  Sleeping time: 8 min
[3]
  Sleeping time (% of control): 178%

## CCCn1c(=O)ccn(C2O[C@H](CO)[C@@H](O)[C@H]2O)c1=O (stereo partly drawn)
[4]
  Control: 134%
[5]
  Sleeping time: None
[6]
  Sleeping time: None

## CCn1c(=O)ccn(C2O[C@H](CO)[C@@H](O)[C@H]2O)c1=O (stereo partly drawn)
[4]
  Control: 124%
[5]
  Sleeping time: None
[6]
  Sleeping time: None

## O=c1ccn(C2O[C@H](CO)[C@@H](O)[C@H]2O)c(=O)n1Cc1ccccc1 (stereo partly drawn)
[11]
  Activity: 7
[7]
  Sleeping time: None
[12]
  Sleeping time: None
[4]
  Control: 404%
[13]
  Control: 154%
[14]
  Activity: 8
[6]
  Sleeping time: None
[15]
  Sleeping time: 153 min
[16]
  Activity: 0
[17]
  Sleeping time: 106 min
[2]
  Sleeping time: 36 min and 28 min
[3]
  Sleeping time (% of control): 292%
[9]
  Sleeping time: None
[10]
  Partition coefficient: 2.16

## CC(=O)OC[C@H]1O[C@@H](n2ccc(=O)n(Cc3ccccc3)c2=O)[C@H](OC(C)=O)[C@@H]1OC(C)=O
[18]
  Sleeping time: 1 min
[19]
  Sleeping time: 5 min
[2]
  Sleeping time: 4 min
[3]
  Sleeping time (% of control): 186%
[9]
  Sleeping time: None
[10]
  Partition coefficient: 32.73

## O=c1ccn(C2O[C@H](CO)[C@@H](O)[C@H]2O)c(=O)n1Cc1ccc(Cl)cc1 (stereo partly drawn)
[4]
  Control: 203%
[6]
  Sleeping time: None
[2]
  Sleeping time: 20 min

## O=c1cc[nH]c(=O)[nH]1 [URACIL]
[13]
  Control: 99%
[6]
  Sleeping time: None
[8]
  Sleeping time: None

## Cc1ccccc1Cn1c(=O)ccn(C2O[C@H](CO)[C@@H](O)[C@H]2O)c1=O (stereo partly drawn)
[20]
  Activity: 8
[21]
  Activity: 4
[6]
  Sleeping time: None
[17]
  Sleeping time: 129 min
[2]
  Sleeping time: 72 min and 70 min
[22]
  Activity: 6
[3]
  Sleeping time (% of control): 344%
[23]
  Sleeping time: 45 min

## O=c1c(F)cn(C2CCCO2)c(=O)n1Cc1ccccc1 (stereo not drawn)
[18]
  Sleeping time: 2 min
[19]
  Sleeping time: 7 min
[2]
  Sleeping time: 3 min
[3]
  Sleeping time (% of control): 262%
[9]
  Sleeping time: None
[10]
  Partition coefficient: 23.94

## CC(C)=CCn1c(=O)ccn(C2O[C@H](CO)[C@@H](O)[C@H]2O)c1=O (stereo partly drawn)
[4]
  Control: 228%
[5]
  Sleeping time: None
[6]
  Sleeping time: None

## COC[C@H]1O[C@@H](n2ccc(=O)n(Cc3ccccc3)c2=O)[C@H](OC)[C@@H]1OC
[18]
  Sleeping time: 6 min
[19]
  Sleeping time: 29 min
[2]
  Sleeping time: 6 min
[3]
  Sleeping time (% of control): 200%
[9]
  Sleeping time: None
[10]
  Partition coefficient: 64.45

## O=c1ccn([C@@H]2O[C@H](CO)[C@@H](O)[C@H]2O)c(=O)[nH]1 [URIDINE]
[4]
  Control: 138%
[13]
  Control: 93%
[5]
  Sleeping time: None
[6]
  Sleeping time: None
[24]
  Control: 135%

## CC(c1ccccc1)n1c(=O)ccn(C2O[C@H](CO)[C@@H](O)[C@H]2O)c1=O (stereo partly drawn)
[25]
  Activity: 2
[26]
  Activity: 5
[4]
  Control: 303%
[27]
  Sleeping time: None
[6]
  Sleeping time: None
[17]
  Sleeping time: 27 min
[2]
  Sleeping time: 7 min
[28]
  Activity: 0
[3]
  Sleeping time (% of control): 231%

## Cn1c(=O)ccn(C2O[C@H](CO)[C@@H](O)[C@H]2O)c1=O (stereo partly drawn)
[4]
  Control: 117%
[5]
  Sleeping time: None
[6]
  Sleeping time: None

## O=c1ccn(Cc2ccccc2)c(=O)[nH]1
[6]
  Sleeping time: None
[8]
  Sleeping time: None
[3]
  Sleeping time (% of control): 86%

## O=c1ccn(Cc2ccccc2)c(=O)n1Cc1ccccc1
[4]
  Control: 112%
[19]
  Sleeping time: 17 min
[8]
  Sleeping time: None
[29]
  Sleeping time: 15 min

## Cc1cccc(Cn2c(=O)ccn(C3O[C@H](CO)[C@@H](O)[C@H]3O)c2=O)c1 (stereo partly drawn)
[6]
  Sleeping time: None
[2]
  Sleeping time: 56 min
[3]
  Sleeping time (% of control): 326%

## COC[C@H]1O[C@@H](n2ccc(=O)[nH]c2=O)[C@H](OC)[C@@H]1OC
[7]
  Sleeping time: None
[6]
  Sleeping time: None
[8]
  Sleeping time: None
[3]
  Control: 144%
[9]
  Sleeping time: None
[10]
  Partition coefficient: 2.16
